Molecules are shown by their SMILES. A value given as a limit tells only on which side of the number the result lay.

This passage reports IC50 results from patent US20260078122A1, “INDAZOLE COMPOUNDS AS PKMYT1 KINASE INHIBITORS” (Hoffmann-La Roche Inc., priority 2023, published 2026).

The target in the experiment is T1, recombinant human Myt1 (full length PKMYT1) (Homo sapiens, UniProt Q99640).
T1 sequence (Q99640 1-499): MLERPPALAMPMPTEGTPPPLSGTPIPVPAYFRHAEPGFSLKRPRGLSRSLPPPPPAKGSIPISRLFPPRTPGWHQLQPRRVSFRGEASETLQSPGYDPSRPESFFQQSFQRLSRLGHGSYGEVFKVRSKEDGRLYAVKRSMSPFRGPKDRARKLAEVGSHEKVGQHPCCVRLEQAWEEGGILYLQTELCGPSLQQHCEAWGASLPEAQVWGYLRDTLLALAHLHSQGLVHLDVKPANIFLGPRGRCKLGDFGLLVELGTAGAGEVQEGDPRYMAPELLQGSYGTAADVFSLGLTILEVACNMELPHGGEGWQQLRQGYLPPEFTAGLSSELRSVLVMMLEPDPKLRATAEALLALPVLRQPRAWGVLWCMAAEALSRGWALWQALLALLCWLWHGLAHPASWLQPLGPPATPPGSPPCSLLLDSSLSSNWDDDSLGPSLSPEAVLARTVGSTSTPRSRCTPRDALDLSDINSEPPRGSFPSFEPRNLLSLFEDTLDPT
Description: ADP-Glo assay (Myt1 kinase activity). For orientation: ADP-Glo turns the ADP formed in a reaction into a luminescent signal.
A word on the IC50: it is the concentration that gives 50% inhibition. Take `CCCOc1cnc(C)c2[nH]c(=O)c(N)c(-c3ccc(F)c4[nH]ncc34)c12` [Example 190, 3-Amino-4-(7-fluoro-1H-indazol-4-yl)-8-methyl-5-propoxy-1H-1,7-naphthyridin-2-one]: the IC50 turned out to be 15.3 nM.

With `Cc1cc2[nH]c(=O)c(N)c(-c3ccc(F)c4[nH]ncc34)c2nc1OC(C)C` [Example 064, 3-Amino-4-(7-fluoro-1H-indazol-4-yl)-6-isopropoxy-7-methyl-1H-1,5-naphthyridin-2-one], the IC50 is under 10 nM.

Take `Cc1cnc2c(-c3ccc(F)c4[nH]ncc34)c(N)c(=O)[nH]c2c1C(F)F` [Example 145, 3-Amino-8-(difluoromethyl)-4-(7-fluoro-1H-indazol-4-yl)-7-methyl-1H-1,5-naphthyridin-2-one]: the IC50 was 18.5 nM.

Turning to `Cc1c(F)cnc2c(-c3ccc(F)c4[nH]ncc34)c(N)c(=O)[nH]c12` [Example 135, 3-Amino-7-fluoro-4-(7-fluoro-1H-indazol-4-yl)-8-methyl-1H-1,5-naphthyridin-2-one], the IC50 was determined as 14 nM.

Regarding `Cc1c(-c2nccs2)cnc2c(-c3ccc(F)c4[nH]ncc34)c(N)c(=O)[nH]c12` [Example 121, 3-Amino-4-(7-fluoro-1H-indazol-4-yl)-8-methyl-7-thiazol-2-yl-1H-1,5-naphthyridin-2-one], the IC50 was 10.7 nM.

Regarding `Cc1ncc(C)c2c(-c3ccc(F)c4[nH]ncc34)c(N)c(=O)[nH]c12` [Example 177, 3-Amino-4-(7-fluoro-1H-indazol-4-yl)-5,8-dimethyl-1H-1,7-naphthyridin-2-one], the IC50 amounted to 13.9 nM.

Consider `Cc1ncc(OCC(F)F)c2c(-c3ccc(F)c4[nH]ncc34)c(N)c(=O)[nH]c12` [Example 186, 3-Amino-5-(2,2-difluoroethoxy)-4-(7-fluoro-1H-indazol-4-yl)-8-methyl-1H-1,7-naphthyridin-2-one], for which the IC50 is 15.8 nM.

For `Cc1nc2c(-c3ccc(F)c4[nH]ncc34)c(N)c(=O)[nH]c2c(Cl)c1C` [Example 57, 3-Amino-8-chloro-4-(7-fluoro-1H-indazol-4-yl)-6,7-dimethyl-1H-1,5-naphthyridin-2-one], the half-inhibitory concentration (IC50) worked out at 11.7 nM.

As for `Cc1cc2[nH]c(=O)c(N)c(-c3ccc(F)c4[nH]ncc34)c2cc1C1CCN(CC(F)(F)F)CC1` [Example 106, 3-Amino-4-(7-fluoro-1H-indazol-4-yl)-7-methyl-6-[1-(2,2,2-trifluoroethyl)-4-piperidyl]-1H-quinolin-2-one], the IC50 is 14.5 nM.

As to `COCc1cnc(C)c2[nH]c(=O)c(N)c(-c3ccc(F)c4[nH]ncc34)c12` [Example 193, 3-Amino-4-(7-fluoro-1H-indazol-4-yl)-5-(methoxymethyl)-8-methyl-1H-1,7-naphthyridin-2-one], the IC50 is 33.3 nM.

In the case of `Nc1c(-c2ccc(F)c3[nH]ncc23)c2nc(Cl)c(C3CC3)cc2[nH]c1=O` [Example 095, 3-Amino-6-chloro-7-cyclopropyl-4-(7-fluoro-1H-indazol-4-yl)-1H-1,5-naphthyridin-2-one], the IC50 was under 10 nM.

Turning to `Cc1cc2[nH]c(=O)c(N)c(-c3ccc(F)c4[nH]ncc34)c2nc1NC(C)C` [Example 23, 3-Amino-4-(7-fluoro-1H-indazol-4-yl)-6-(isopropylamino)-7-methyl-1H-1,5-naphthyridin-2-one], the IC50 came out at 10.7 nM.

Take `Cc1cc2[nH]c(=O)c(N)c(-c3ccc(F)c4[nH]ncc34)c2nc1-c1ccccn1` [Example 155, 3-Amino-4-(7-fluoro-1H-indazol-4-yl)-7-methyl-6-(2-pyridyl)-1H-1,5-naphthyridin-2-one]: the IC50 was found to be 14.7 nM.

Consider `Cc1c([C@@H]2C[C@H]2C)cnc2c(-c3ccc(F)c4[nH]ncc34)c(N)c(=O)[nH]c12` (racemic) [Example 144, 3-Amino-4-(7-fluoro-1H-indazol-4-yl)-8-methyl-7-[rac-(1R,2R)-2-methylcyclopropyl]-1H-1,5-naphthyridin-2-one], for which the IC50 came out at 11.4 nM.

Turning to `Nc1c(-c2ccc(F)c3[nH]ncc23)c2ncc(N3CCOCC3)cc2[nH]c1=O` [Example 19, 3-Amino-4-(7-fluoro-1H-indazol-4-yl)-7-morpholino-1H-1,5-naphthyridin-2-one], the IC50 came to 30.3 nM.

Turning to `Cc1cc2[nH]c(=O)c(N)c(-c3ccc(F)c4[nH]ncc34)c2nc1OCC(F)F` [Example 059, 3-Amino-6-(2,2-difluoroethoxy)-4-(7-fluoro-1H-indazol-4-yl)-7-methyl-1H-1,5-naphthyridin-2-one], the IC50 was under 10 nM.

Consider `Cc1cc2[nH]c(=O)c(N)c(-c3ccc(F)c4[nH]ncc34)c2nc1-c1cccs1` [Example 151, 3-Amino-4-(7-fluoro-1H-indazol-4-yl)-7-methyl-6-(2-thienyl)-1H-1,5-naphthyridin-2-one], for which the IC50 was 13 nM.

For the molecule `COC(=O)C1CC(Oc2nc3c(-c4ccc(F)c5[nH]ncc45)c(N)c(=O)[nH]c3cc2C)C1` (centres unmarked) [Example 067, Methyl 3-[[7-amino-8-(7-fluoro-1H-indazol-4-yl)-3-methyl-6-oxo-5H-1,5-naphthyridin-2-yl]oxy]cyclobutanecarboxylate], the IC50 amounted to 24.4 nM.

On to `C=C(C)c1cnc2c(-c3ccc(F)c4[nH]ncc34)c(N)c(=O)[nH]c2c1C` [Example 125, 3-Amino-4-(7-fluoro-1H-indazol-4-yl)-7-isopropenyl-8-methyl-1H-1,5-naphthyridin-2-one], for which the IC50 was under 10 nM.

Take `Cc1cc2[nH]c(=O)c(N)c(-c3ccc(F)c4[nH]ncc34)c2nc1OCCC(F)F` [Example 081, 3-Amino-6-(3,3-difluoropropoxy)-4-(7-fluoro-1H-indazol-4-yl)-7-methyl-1H-1,5-naphthyridin-2-one]: the 50% inhibitory concentration (IC50) is 14.6 nM.

For the molecule `Cc1cc2[nH]c(=O)c(N)c(-c3ccc(F)c4[nH]ncc34)c2nc1N1CCN(C(C)C)CC1` [Example 28, 3-Amino-4-(7-fluoro-1H-indazol-4-yl)-6-(4-isopropylpiperazin-1-yl)-7-methyl-1H-1,5-naphthyridin-2-one], the IC50 is 29.1 nM.

In the case of `Nc1c(-c2ccc(F)c3[nH]ncc23)c2c(OCc3ccccc3)cnc(Cl)c2[nH]c1=O` [Example 180, 3-Amino-5-benzyloxy-8-chloro-4-(7-fluoro-1H-indazol-4-yl)-1H-1,7-naphthyridin-2-one], the IC50 is 22.6 nM.

In the case of `Cc1ncc(OC2CC2)c2c(-c3ccc(F)c4[nH]ncc34)c(N)c(=O)[nH]c12` [Example 187, 3-Amino-5-(cyclopropoxy)-4-(7-fluoro-1H-indazol-4-yl)-8-methy-1H-1,7-naphthyridin-2-one], the IC50 amounted to 10.8 nM.

In the case of `Nc1c(-c2ccc(F)c3[nH]ncc23)c2nc(C3CC3)c(Cl)cc2[nH]c1=O` [Example 55, 3-Amino-7-chloro-6-cyclopropyl-4-(7-fluoro-1H-indazol-4-yl)-1H-1,5-naphthyridin-2-one], the IC50 came to 12.4 nM.

With `Cc1c(C2CC2)nc2c(-c3ccc(F)c4[nH]ncc34)c(N)c(=O)[nH]c2c1Cl` [Example 109, 3-Amino-8-chloro-6-cyclopropyl-4-(7-fluoro-1H-indazol-4-yl)-7-methyl-1H-1,5-naphthyridin-2-one], the IC50 is under 10 nM.

As to `Cc1c(OC2CCC2)cnc2c(-c3ccc(F)c4[nH]ncc34)c(N)c(=O)[nH]c12` [Example 139, 3-Amino-7-(cyclobutoxy)-4-(7-fluoro-1H-indazol-4-yl)-8-methyl-1H-1,5-naphthyridin-2-one], the IC50 is 13.2 nM.
